Reference: ChEMBL document CHEMBL1155519, “Discovery of N-phenyl-4-(thiazol-5-yl)pyrimidin-2-amine aurora kinase inhibitors” (J Med Chem, 2010)
Converted amounts (≈) assume the structure as drawn. One block for each compound: values may come before it. The source made the active and inactive calls. The rule behind the calls is not given here.

Legend:
[1] = biological target: Cyclin-dependent kinase 2 (Homo sapiens, UniProt P24941)
[2] = biological target: Cyclin-dependent kinase 7 (Homo sapiens, UniProt P50613); assay: Inhibition of CDK7
Chain of Cyclin-dependent kinase 7 (P50613 whole entry): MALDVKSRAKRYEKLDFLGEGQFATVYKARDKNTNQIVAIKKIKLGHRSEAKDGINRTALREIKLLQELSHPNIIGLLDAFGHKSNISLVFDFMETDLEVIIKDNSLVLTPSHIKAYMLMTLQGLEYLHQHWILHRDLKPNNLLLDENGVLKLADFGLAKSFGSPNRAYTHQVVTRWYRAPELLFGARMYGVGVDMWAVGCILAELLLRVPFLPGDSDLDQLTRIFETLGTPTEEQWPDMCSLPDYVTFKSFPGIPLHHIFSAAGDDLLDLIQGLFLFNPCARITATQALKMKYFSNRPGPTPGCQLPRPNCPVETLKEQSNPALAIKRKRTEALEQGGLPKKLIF

U2OS [3] = assay: Inhibition of Aurora kinase in asynchronous human U2OS cells assessed as reduction of histone H3 serine-10 phosphorylation at 150 nM after 7 hrs immunofluorescence microscopy; assay type: cell-based
Aurora kinase A = biological target: T1, Aurora kinase A (Homo sapiens, UniProt O14965); assay: Inhibition of human recombinant Aurora A after 30 mins
T1 sequence (O14965 whole entry): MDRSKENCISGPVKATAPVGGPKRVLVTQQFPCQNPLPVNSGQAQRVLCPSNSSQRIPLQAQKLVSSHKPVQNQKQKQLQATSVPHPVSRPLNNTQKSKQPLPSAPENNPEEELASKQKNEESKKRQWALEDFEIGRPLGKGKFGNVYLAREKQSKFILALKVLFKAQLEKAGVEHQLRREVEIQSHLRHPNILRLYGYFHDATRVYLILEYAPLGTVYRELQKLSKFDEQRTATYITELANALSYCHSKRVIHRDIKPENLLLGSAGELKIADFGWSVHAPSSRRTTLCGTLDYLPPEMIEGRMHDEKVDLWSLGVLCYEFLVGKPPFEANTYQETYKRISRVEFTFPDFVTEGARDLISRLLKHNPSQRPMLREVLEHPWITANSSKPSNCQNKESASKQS

[4] = biological target: Cyclin-dependent kinase 9 (Homo sapiens, UniProt P50750); assay: Inhibition of CDK9
Chain of Cyclin-dependent kinase 9 (P50750 whole entry): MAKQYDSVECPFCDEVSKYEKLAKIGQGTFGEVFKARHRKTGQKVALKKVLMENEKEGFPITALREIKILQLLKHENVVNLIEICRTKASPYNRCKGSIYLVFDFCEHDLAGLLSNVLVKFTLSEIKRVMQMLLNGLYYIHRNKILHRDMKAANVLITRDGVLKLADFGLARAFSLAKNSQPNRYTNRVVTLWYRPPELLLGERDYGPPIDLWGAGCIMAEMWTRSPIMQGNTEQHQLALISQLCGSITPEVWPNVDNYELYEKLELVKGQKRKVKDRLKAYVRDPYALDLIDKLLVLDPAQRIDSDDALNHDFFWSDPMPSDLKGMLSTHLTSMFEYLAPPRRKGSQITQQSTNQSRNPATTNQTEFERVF

[5] = biological target: Cyclin-dependent kinase 4 (Homo sapiens, UniProt P11802); assay: Inhibition of CDK4
Chain of Cyclin-dependent kinase 4 (P11802 whole entry): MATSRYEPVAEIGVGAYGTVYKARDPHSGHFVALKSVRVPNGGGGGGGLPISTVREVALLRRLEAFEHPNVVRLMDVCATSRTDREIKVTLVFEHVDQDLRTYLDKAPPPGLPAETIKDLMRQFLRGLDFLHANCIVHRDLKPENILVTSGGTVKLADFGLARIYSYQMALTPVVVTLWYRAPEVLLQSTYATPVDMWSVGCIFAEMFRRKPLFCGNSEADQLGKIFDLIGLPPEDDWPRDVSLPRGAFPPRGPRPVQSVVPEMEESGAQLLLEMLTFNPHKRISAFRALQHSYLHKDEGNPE

A2780 = assay: Cytotoxicity against human A2780 cells after 96 hrs by MTT assay; assay type: functional, cell-based; conditions: A2780, 96 h
MIA PaCa-2 = assay: Cytotoxicity against human MIAPaCa2 cells after 96 hrs by MTT assay; assay type: functional, cell-based; conditions: MIA PaCa-2, 96 h
Aurora kinase B = Aurora kinase B (Homo sapiens, UniProt Q96GD4); assay: Inhibition of human recombinant Aurora B after 60 mins
Chain of Aurora kinase B (Q96GD4 whole entry): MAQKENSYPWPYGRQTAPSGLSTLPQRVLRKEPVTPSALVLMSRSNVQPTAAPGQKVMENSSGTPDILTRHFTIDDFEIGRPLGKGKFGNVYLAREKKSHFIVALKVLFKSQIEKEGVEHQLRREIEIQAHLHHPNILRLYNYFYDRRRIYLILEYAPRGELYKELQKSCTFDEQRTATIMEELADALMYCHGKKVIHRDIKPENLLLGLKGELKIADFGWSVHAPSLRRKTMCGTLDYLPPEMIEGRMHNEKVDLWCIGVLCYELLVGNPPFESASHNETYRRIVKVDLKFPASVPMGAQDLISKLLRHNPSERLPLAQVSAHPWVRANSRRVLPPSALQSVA

MCF7 [6] = assay: Induction of p53 protein expression in human MCF7 cells at 0.07 to 10 uM after 7 hrs by fluorescent microscopy; assay type: functional, cell-based
U2OS [7] = assay: Inhibition of Aurora kinase in nocodazole-synchronized human U2OS cells assessed as reduction of histone H3 serine-10 phosphorylation at 0.07 to 10 uM after 2 hrs immunofluorescence microscopy; assay type: cell-based
[8] = Inhibition of Aurora kinase in human A549 cells assessed as concentration required for half-maximal inhibition of histone H3 serine-10 phosphorylation after 7 hrs immunofluorescence microscopy; assay type: cell-based; conditions: A549, 7 h
[9] = biological target: Cyclin-dependent kinase 1 (Homo sapiens, UniProt P06493); assay: Inhibition of CDK1
Chain of Cyclin-dependent kinase 1 (P06493 whole entry): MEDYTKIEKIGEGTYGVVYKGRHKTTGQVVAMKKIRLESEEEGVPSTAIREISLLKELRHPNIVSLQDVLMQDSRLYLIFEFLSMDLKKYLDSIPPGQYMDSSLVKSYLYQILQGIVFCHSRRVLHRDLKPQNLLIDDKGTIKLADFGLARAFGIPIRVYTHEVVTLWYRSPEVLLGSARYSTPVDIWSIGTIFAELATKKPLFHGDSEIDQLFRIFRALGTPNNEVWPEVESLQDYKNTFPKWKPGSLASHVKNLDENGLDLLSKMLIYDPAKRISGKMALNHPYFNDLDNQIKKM

[10] = Dissociation constant, pKa by pH-metric titration method; assay type: physicochemical
[11] = Cmax in Wistar rat at 10 mg/kg, po after 24 hrs by LC/MS/MS analysis; assay type: ADME, organism-based; design: dose 10 mg/kg, route oral; conditions: in vivo
[12] = Half life in rat liver microsomes by LC/MS/MS analysis; assay type: ADME, Microsome
HCT-116 = assay: Cytotoxicity against human HCT116 cells after 96 hrs by MTT assay; assay type: functional, cell-based; conditions: HCT-116, 96 h
K562 = assay: Cytotoxicity against human K562 cells after 96 hrs by MTT assay; assay type: functional, cell-based; conditions: K562, 96 h
[13] = Aqueous solubility by turbidimetric analysis; assay type: physicochemical
MV4-11 = assay: Cytotoxicity against human MV4-11 cells after 96 hrs by MTT assay; assay type: functional, cell-based; conditions: MV4-11, 96 h
[14] = Octanol-aqueous buffer partition coefficient, log D at pH 7.4 by shake-flask method; assay type: physicochemical
Liver microsomes = assay: Intrinsic clearance in rat liver microsomes by LC/MS/MS analysis; assay type: ADME, Microsome
[15] = Elimination half life in Wistar rat at 10 mg/kg, po by LC/MS/MS analysis; assay type: ADME, organism-based; design: dose 10 mg/kg, route oral; conditions: in vivo, read-out: beta t1/2 (converted)
HT-29 = assay: Cytotoxicity against human HT-29 cells after 96 hrs by MTT assay; assay type: functional, cell-based; conditions: HT-29, 96 h
SAOS-2 = assay: Cytotoxicity against human Saos2 cells after 96 hrs by MTT assay; assay type: functional, cell-based; conditions: SAOS-2, 96 h
[16] = Oral bioavailability in Wistar rat at 10 mg/kg after 24 hrs by LC/MS/MS analysis; assay type: ADME, organism-based; conditions: in vivo
[17] = Clearance in Wistar rat at 10 mg/kg, po after 24 hrs by LC/MS/MS analysis; assay type: ADME, organism-based; design: dose 10 mg/kg, route oral; conditions: in vivo
CCRF-CEM = assay: Cytotoxicity against human CCRF-CEM cells after 96 hrs by MTT assay; assay type: functional, cell-based
[18] = Apparent permeability across human Caco-2 cell membrane; assay type: ADME, cell-based
COLO 205 = assay: Cytotoxicity against human COLO205 cells after 96 hrs by MTT assay; assay type: functional, cell-based; conditions: COLO 205, 96 h
[19] = Cytotoxicity against human MESSA cells after 96 hrs by MTT assay; assay type: functional, cell-based; conditions: MES-SA
A549 [20] = assay: Effect on mitotic index in asynchronous human A549 cells assessed as appearance of misaligned chromosomes with shortened spindle fibres at 0.5 uM after 8 hrs […]; assay type: functional, cell-based
HuP-T4 = assay: Cytotoxicity against human HUPT4 cells after 96 hrs by MTT assay; assay type: functional, cell-based; conditions: HuP-T4, 96 h
BXPC-3 = assay: Cytotoxicity against human BxPC3 cells after 96 hrs by MTT assay; assay type: functional, cell-based; conditions: BXPC-3, 96 h
HeLa = assay: Cytotoxicity against human HeLa cells after 96 hrs by MTT assay; assay type: functional, cell-based
A549 [21] = assay: Cell cycle arrest in asynchronous human A549 cells assessed as accumulation of cyclin B-positive tetraploid cells at G2/M phase at 0.5 to 2 uM after 7 hrs by FACS analysis; assay type: functional, cell-based
[22] = Fraction unbound in rat plasma by equilibrium dialysis; assay type: ADME, cell-free
NCI-H460 = assay: Cytotoxicity against human NCI-H460 cells after 96 hrs by MTT assay; assay type: functional, cell-based; conditions: NCI-H460, 96 h
[23] = AUC (0 to 24 hrs) in Wistar rat at 10 mg/kg, po after 24 hrs by LC/MS/MS analysis; assay type: ADME, organism-based; design: time < 24 hr, dose 10 mg/kg, route oral; conditions: plasma
HL-60 = assay: Cytotoxicity against human HL60 cells after 96 hrs by MTT assay; assay type: functional, cell-based; conditions: HL-60, 96 h
A549 [24] = assay: Cell cycle arrest in asynchronous human A549 cells assessed as accumulation of cyclin B-negative diploid cells at G1 phase at 0.5 uM after 24 hrs by FACS analysis; assay type: functional, cell-based
A549 [25] = assay: Cell cycle arrest in asynchronous human A549 cells assessed as accumulation of cyclin B-negative diploid and tetraploid cells at G1 phase at 2 uM after 24 hrs by FACS analysis; assay type: functional, cell-based
MCF7 [26] = assay: Induction of p53 protein expression in human MCF7 cells at 150 nM after 7 hrs by fluorescent microscopy; assay type: functional, cell-based

SMILES: CNc1ccc(Nc2nccc(-c3sc(C)nc3C)n2)cc1
Ki [1]: 286 nM | Ki [2]: 4240 nM | Ki (Aurora kinase A): 18 nM | Ki [4]: 348 nM | Ki [5]: 840 nM | IC50 (A2780): 147 nM | IC50 (MIA PaCa-2): 235 nM | Ki (Aurora kinase B): 33 nM | IC50 [8]: 1760 nM | Ki [9]: 909 nM

SMILES: Cc1nc(N)sc1-c1ccnc(Nc2cccc([N+](=O)[O-])c2)n1
Activity (U2OS [3]): Active | IC50 (A2780): 48 nM | IC50 (MIA PaCa-2): 139 nM | Activity (MCF7 [26]): Active | inhibition (U2OS [7]): Active

SMILES: CCNc1nc(C)c(-c2ccnc(Nc3ccc(N4CCOCC4)cc3)n2)s1
Ki [1]: 151 nM | Ki [2]: > 10000 nM | Activity (U2OS [3]): inactive | Ki (Aurora kinase A): 14 nM | Ki [4]: 559 nM | Ki [5]: 196 nM | IC50 (A2780): 81 nM | IC50 (MIA PaCa-2): 173 nM | Ki (Aurora kinase B): 6 nM | Activity (MCF7 [6]): inactive | inhibition (U2OS [7]): Active | IC50 [8]: 570 nM | Ki [9]: > 10000 nM

SMILES: Cc1nc(C)c(-c2ccnc(Nc3ccc(N4CCOCC4)cc3)n2)s1
Ki [1]: 1040 nM | Ki [2]: > 10000 nM | Activity (U2OS [3]): inactive | Ki (Aurora kinase A): 4 nM | Ki [4]: > 10000 nM | Ki [5]: 2170 nM | IC50 (A2780): 332 nM | IC50 (MIA PaCa-2): 871 nM | Ki (Aurora kinase B): 9 nM | Activity (MCF7 [6]): inactive | inhibition (U2OS [7]): Active | IC50 [8]: 860 nM | Ki [9]: > 10000 nM

SMILES: Cc1nc(C)c(-c2ccnc(Nc3ccc(N4CCN(S(C)(=O)=O)CC4)cc3)n2)s1
Ki [1]: 3970 nM | Ki [2]: > 10000 nM | Ki (Aurora kinase A): 9.2 nM | Ki [4]: 1470 nM | Ki [5]: > 10000 nM | IC50 (A2780): 298 nM | IC50 (MIA PaCa-2): 608 nM | Ki (Aurora kinase B): 18 nM | IC50 [8]: 1110 nM | Ki [9]: > 10000 nM

The next lines start with results.

Ki [1]: 256 nM | Ki [2]: 370 nM | Ki (Aurora kinase A): 1 nM | Ki [4]: 6 nM | Ki [5]: 955 nM | Ki (Aurora kinase B): 3 nM | IC50 [8]: 280 nM | Ki [9]: 367 nM
SMILES: CNc1nc(C)c(-c2ccnc(Nc3cc(OC)c(OC)c(OC)c3)n2)s1
Activity (U2OS [3]): inactive | IC50 (A2780): 24 nM | IC50 (MIA PaCa-2): 62 nM | Activity (MCF7 [6]): inactive | inhibition (U2OS [7]): Active

pKa [10]: 5.5 | Cmax [11]: 900 nM | Ki [2]: 4010 nM | half-life [12]: 4.7 min | Ki (Aurora kinase A): 6.9 nM | solubility kinetic [13]: 20 µM (≈ 6.51 µg/mL) | Ki [4]: 575 nM | logD [14]: 1.33 | clearance (Liver microsomes): 296 µL/min/mg | Ki (Aurora kinase B): 15 nM | half-life [15]: 4.4 h | bioavailability [16]: 7% | CL/F [17]: 70 mL/min/kg | Papp [18]: 49.2 ×10⁻⁶ cm/s | fraction unbound [22]: 0.96 | AUC(0-t) at 24 h [23]: 6.9 µM·h | IC50 [8]: 2600 nM | Ki [9]: 2520 nM
SMILES: Cc1nc(C)c(-c2ccnc(Nc3ccc(N(C)C)cc3)n2)s1
IC50 (HCT-116): 133 nM | IC50 (K562): 40 nM | IC50 (MV4-11): 110 nM | IC50 (A2780): 157 nM | IC50 (MIA PaCa-2): 177 nM | IC50 (HT-29): 128 nM | IC50 (SAOS-2): 320 nM | IC50 (CCRF-CEM): 170 nM | IC50 (COLO 205): 84 nM | IC50 [19]: 110 nM | Activity (A549 [20]): Active | IC50 (HuP-T4): 156 nM | IC50 (BXPC-3): 93 nM | IC50 (HeLa): 190 nM | inhibition (U2OS [7]): Active | Activity (A549 [21]): Active | IC50 (NCI-H460): 180 nM | IC50 (HL-60): 128 nM | Activity (A549 [24]): Active | Activity (A549 [25]): Active

Ki [1]: 239 nM | Ki [2]: 243 nM | Ki (Aurora kinase A): 0.4 nM | Ki [4]: 11 nM | Ki [5]: 666 nM | Ki (Aurora kinase B): 2 nM | IC50 [8]: 130 nM | Ki [9]: 706 nM
SMILES: COc1cc(Nc2nccc(-c3sc(C)nc3C)n2)cc(OC)c1OC
Activity (U2OS [3]): inactive | IC50 (A2780): 10 nM | IC50 (MIA PaCa-2): 22 nM | Activity (MCF7 [6]): inactive | inhibition (U2OS [7]): Active
